Source: ChEMBL document CHEMBL4265951, “Multi-target-directed ligands for Alzheimer's disease: Discovery of chromone-based monoamine oxidase/cholinesterase inhibitors” (Eur J Med Chem, 2018)
The source made the active and inactive calls. The rule behind the calls is not given here.

Experiments:
Cholinesterase [1] = biological target: T1, Cholinesterase (Homo sapiens, UniProt P06276); test: Inhibition of human serum BuChE at 10 uM using butyrylthiocholine as substrate pretreated for 5 mins followed by substrate addition measured after 5 mins by Ellman's method
[2] = biological target: T2, Amine oxidase [flavin-containing] A (Homo sapiens, UniProt P21397); test: Inhibition of human recombinant microsomal MAOA expressed in baculovirus infected BTI-TN-5B1- 4 cells using p-tyramine as substrate assessed as decrease in H2O2 production at 10 uM by amplex red-based fluorescence assay
T2 sequence (P21397 whole entry): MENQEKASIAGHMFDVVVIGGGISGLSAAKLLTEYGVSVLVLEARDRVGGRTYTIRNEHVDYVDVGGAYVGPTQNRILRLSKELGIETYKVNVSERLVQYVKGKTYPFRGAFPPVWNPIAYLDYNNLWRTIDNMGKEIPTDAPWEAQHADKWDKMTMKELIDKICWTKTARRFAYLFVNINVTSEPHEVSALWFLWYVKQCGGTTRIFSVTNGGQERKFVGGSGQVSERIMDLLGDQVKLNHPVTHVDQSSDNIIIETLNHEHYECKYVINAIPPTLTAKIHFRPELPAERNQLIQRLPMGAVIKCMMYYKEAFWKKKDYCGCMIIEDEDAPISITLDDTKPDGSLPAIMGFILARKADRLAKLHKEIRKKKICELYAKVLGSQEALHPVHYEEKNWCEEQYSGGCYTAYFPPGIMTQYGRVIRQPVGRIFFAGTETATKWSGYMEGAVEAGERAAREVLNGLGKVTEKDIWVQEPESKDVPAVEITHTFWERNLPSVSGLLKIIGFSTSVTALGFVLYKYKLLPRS

Acetylcholinesterase [3] = biological target: T3, Acetylcholinesterase (Homo sapiens, UniProt P22303); test: Inhibition of human AChE at 10 uM using acetylthiocholine iodide as substrate pretreated for 5 mins followed by substrate addition measured after 5 mins by Ellman's method
[4] = biological target: T4, Amine oxidase [flavin-containing] B (Homo sapiens, UniProt P27338); test: Inhibition of human recombinant MAOB expressed in baculovirus infected BTI-TN-5B1- 4 cells using p-tyramine as substrate assessed as decrease in H2O2 production at 10 uM by amplex red-based fluorescence assay
T4 sequence (P27338 whole entry): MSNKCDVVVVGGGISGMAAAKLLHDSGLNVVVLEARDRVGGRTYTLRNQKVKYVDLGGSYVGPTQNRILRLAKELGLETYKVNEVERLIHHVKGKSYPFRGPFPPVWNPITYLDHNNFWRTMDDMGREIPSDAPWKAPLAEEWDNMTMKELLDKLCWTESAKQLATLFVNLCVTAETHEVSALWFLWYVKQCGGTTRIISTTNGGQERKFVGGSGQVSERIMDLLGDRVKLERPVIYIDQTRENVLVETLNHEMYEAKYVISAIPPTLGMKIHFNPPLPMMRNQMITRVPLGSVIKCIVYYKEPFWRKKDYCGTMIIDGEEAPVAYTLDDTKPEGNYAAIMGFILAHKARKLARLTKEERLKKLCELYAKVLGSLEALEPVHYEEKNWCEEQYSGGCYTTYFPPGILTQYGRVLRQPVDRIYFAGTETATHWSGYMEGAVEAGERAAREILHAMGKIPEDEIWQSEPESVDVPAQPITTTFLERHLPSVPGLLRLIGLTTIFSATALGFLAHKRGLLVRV

Acetylcholinesterase [5] = biological target: T3, Acetylcholinesterase; test: Inhibition of human AChE using acetylthiocholine iodide as substrate pretreated for 5 mins followed by substrate addition measured after 5 mins by Ellman's method
[6] = biological target: T4, Amine oxidase [flavin-containing] B; test: biochemical; assay type: cell-based
Description: Inhibition of human recombinant MAOB expressed in baculovirus infected BTI-TN-5B1- 4 cells using p-tyramine as substrate assessed as decrease in H2O2 production by amplex red-based fluorescence assay

[7] = biological target: T2, Amine oxidase [flavin-containing] A; test: biochemical
Description: Inhibition of human recombinant microsomal MAOA expressed in baculovirus infected BTI-TN-5B1- 4 cells using p-tyramine as substrate assessed as decrease in H2O2 production by amplex red-based fluorescence assay

in vitro = conditions: PAMPA
Description: Effective permeability of the compound at 1 mg/ml after 4 hrs by BBB-PAMPA method

Cholinesterase [8] = biological target: T1, Cholinesterase; test: Inhibition of human serum BuChE using butyrylthiocholine as substrate pretreated for 5 mins followed by substrate addition measured after 5 mins by Ellman's method
Beta-secretase 1 = Beta-secretase 1 (Homo sapiens, UniProt P56817); test: Inhibition of human BACE1 using rhodamine-EVNLDAEFK-quencher as substrate after 60 mins by FRET assay
Beta-secretase 1, sequence (P56817 whole entry): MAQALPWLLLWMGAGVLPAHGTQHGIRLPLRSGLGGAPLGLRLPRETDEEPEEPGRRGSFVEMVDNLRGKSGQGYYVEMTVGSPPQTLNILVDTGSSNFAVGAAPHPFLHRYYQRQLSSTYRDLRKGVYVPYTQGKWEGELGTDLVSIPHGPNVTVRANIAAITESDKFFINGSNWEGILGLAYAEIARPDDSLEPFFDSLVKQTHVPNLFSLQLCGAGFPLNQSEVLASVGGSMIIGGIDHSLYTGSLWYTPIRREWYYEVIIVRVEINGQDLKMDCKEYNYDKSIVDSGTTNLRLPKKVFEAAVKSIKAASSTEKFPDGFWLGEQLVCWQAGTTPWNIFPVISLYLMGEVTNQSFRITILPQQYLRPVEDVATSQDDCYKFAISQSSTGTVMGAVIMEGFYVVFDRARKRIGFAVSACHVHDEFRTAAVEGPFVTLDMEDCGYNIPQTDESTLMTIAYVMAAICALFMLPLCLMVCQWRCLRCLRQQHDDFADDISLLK

T3 sequence (P22303 whole entry): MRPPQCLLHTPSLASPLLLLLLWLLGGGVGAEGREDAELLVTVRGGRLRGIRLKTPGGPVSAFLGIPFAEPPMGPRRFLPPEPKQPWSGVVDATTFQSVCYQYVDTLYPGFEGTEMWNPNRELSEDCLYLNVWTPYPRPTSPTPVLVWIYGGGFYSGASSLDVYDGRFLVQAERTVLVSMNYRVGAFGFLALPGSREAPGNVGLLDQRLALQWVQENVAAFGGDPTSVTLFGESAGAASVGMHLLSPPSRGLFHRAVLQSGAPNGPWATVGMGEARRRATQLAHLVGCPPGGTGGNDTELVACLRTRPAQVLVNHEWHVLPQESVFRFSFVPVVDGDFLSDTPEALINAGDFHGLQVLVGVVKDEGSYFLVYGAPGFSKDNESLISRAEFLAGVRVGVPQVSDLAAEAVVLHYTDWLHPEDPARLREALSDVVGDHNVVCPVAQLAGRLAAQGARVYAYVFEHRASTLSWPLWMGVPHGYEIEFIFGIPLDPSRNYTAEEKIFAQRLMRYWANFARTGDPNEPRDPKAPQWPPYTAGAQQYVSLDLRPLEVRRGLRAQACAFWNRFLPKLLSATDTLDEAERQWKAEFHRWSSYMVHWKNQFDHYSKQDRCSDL
T1 sequence (P06276 whole entry): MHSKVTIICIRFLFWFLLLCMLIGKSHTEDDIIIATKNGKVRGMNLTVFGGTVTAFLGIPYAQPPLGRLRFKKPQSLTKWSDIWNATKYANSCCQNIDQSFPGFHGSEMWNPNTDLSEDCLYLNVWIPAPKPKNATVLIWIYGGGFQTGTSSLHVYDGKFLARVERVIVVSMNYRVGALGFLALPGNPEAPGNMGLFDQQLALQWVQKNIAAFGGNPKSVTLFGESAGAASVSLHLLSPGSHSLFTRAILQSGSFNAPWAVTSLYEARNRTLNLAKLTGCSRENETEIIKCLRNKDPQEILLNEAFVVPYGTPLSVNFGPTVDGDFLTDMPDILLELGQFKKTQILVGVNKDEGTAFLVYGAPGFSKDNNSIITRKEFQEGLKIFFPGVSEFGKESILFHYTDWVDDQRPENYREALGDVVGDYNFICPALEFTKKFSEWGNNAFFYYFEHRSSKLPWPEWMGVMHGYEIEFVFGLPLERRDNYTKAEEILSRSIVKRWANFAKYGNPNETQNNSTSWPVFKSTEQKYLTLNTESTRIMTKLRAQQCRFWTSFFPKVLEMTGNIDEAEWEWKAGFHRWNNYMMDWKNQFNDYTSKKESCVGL

Row | SMILES | inhibition (Cholinesterase [1]) | inhibition (INH) [2] | inhibition (Acetylcholinesterase [3]) | inhibition (INH) [4] | IC50 (Acetylcholinesterase [5]) [µM] | IC50 [6] [µM] | IC50 [7] [µM] | Papp at 4 h, 1 mg/ml (in vitro) [nm/s] | IC50 (Cholinesterase [8]) [µM] | IC50 (Beta-secretase 1) [µM]
1 | CCN(CC)CCOC(=O)/C=C/c1ccc2occ(C(=O)Nc3ccccc3)c(=O)c2c1 | inactive | Not Active | inactive | Not Active |  |  |  |  |  | 
2 | CCN(CC)CCOC(=O)/C=C/c1ccc2occ(C(=O)Nc3ccc(Cl)cc3)c(=O)c2c1 | inactive | Not Active |  | Not Active | 7.68 |  |  |  |  | 
3 | CN(C)CCOC(=O)/C=C/c1ccc2occ(C(=O)Nc3cccc(Cl)c3)c(=O)c2c1 | inactive | Not Active | inactive |  |  | 2.21 |  |  |  | 
4 | CCN(CC)CCOC(=O)/C=C/c1ccc2occ(C(=O)Nc3ccc(C)cc3)c(=O)c2c1 | inactive | Not Active |  | Not Active | 8.99 |  |  |  |  | 
5 | Cc1ccc(NC(=O)c2cc(=O)c3cc(/C=C/C(=O)OCCN(C)C)ccc3o2)cc1C | inactive | Not Active |  | Not Active | 0.21 |  |  |  |  | 
6 | COc1ccc(NC(=O)c2coc3ccc(/C=C/C(=O)O)cc3c2=O)cc1 | inactive | Not Active |  | Not Active | 8.7 |  |  |  |  | 
7 | CCN(CC)CCOC(=O)/C=C/c1ccc2oc(C(=O)Nc3ccccc3)cc(=O)c2c1 | inactive | Not Active |  | Not Active | 3.47 |  |  |  |  | 
8 | CN(C)CCOC(=O)/C=C/c1ccc2oc(C(=O)Nc3cccc(Cl)c3)cc(=O)c2c1 | inactive | Not Active |  | Not Active | 5.92 |  |  |  |  | 
9 | CCN(CC)CCOC(=O)/C=C/c1ccc2oc(C(=O)Nc3ccc(C)c(C)c3)cc(=O)c2c1 | inactive | Not Active |  |  | 2.47 | 2.54 |  |  |  | 
10 | CCN(CC)CCOC(=O)/C=C/c1ccc2oc(C(=O)Nc3ccc(C)cc3)cc(=O)c2c1 | inactive | Not Active |  | Not Active | 9.87 |  |  |  |  | 
11 | Cc1ccc(NC(=O)c2cc(=O)c3cc(/C=C/C(=O)O)ccc3o2)cc1C | inactive | Not Active | inactive | Not Active |  |  |  |  |  | 
12 | O=C(O)/C=C/c1ccc2occ(C(=O)Nc3cccc(Cl)c3)c(=O)c2c1 | inactive | Not Active | inactive | Not Active |  |  |  |  |  | 
13 | CN(C)CCOC(=O)/C=C/c1ccc2occ(C(=O)Nc3ccc(Cl)cc3)c(=O)c2c1 | inactive | Not Active |  |  | 9.32 | 0.72 |  |  |  | 
14 | COc1ccc(NC(=O)c2coc3ccc(/C=C/C(=O)OCCN(C)C)cc3c2=O)cc1 | inactive | Not Active |  | Not Active | 3.54 |  |  |  |  | 
15 | COc1ccc(NC(=O)c2cc(=O)c3cc(/C=C/C(=O)OCCN(C)C)ccc3o2)cc1 | inactive |  |  | Not Active | 0.91 |  | 4.91 |  |  | 
16 | Cc1ccc(NC(=O)c2coc3ccc(/C=C/C(=O)OCCN(C)C)cc3c2=O)cc1C | inactive | Not Active | inactive |  |  | 3.65 |  |  |  | 
17 | Cc1ccc(NC(=O)c2cc(=O)c3cc(/C=C/C(=O)O)ccc3o2)cc1 | inactive | Not Active |  | Not Active | 5.1 |  |  | 15 |  | 

Row | SMILES | inhibition (Cholinesterase [1]) | inhibition (INH) [2] | inhibition (Acetylcholinesterase [3]) | inhibition (INH) [4] | IC50 (Acetylcholinesterase [5]) [µM] | IC50 [6] [µM] | IC50 [7] [µM] | Papp at 4 h, 1 mg/ml (in vitro) [nm/s] | IC50 (Cholinesterase [8]) [µM] | IC50 (Beta-secretase 1) [µM]
18 | O=C(O)/C=C/c1ccc2oc(C(=O)Nc3cccc(Cl)c3)cc(=O)c2c1 | inactive | Not Active | inactive | Not Active |  |  |  |  |  | 
19 | CN(C)CCOC(=O)/C=C/c1ccc2oc(C(=O)Nc3ccc(Cl)cc3)cc(=O)c2c1 | inactive | Not Active |  | Not Active | 1.22 |  |  |  |  | 
20 | CCN(CC)CCOC(=O)/C=C/c1ccc2oc(C(=O)Nc3ccc(Cl)cc3)cc(=O)c2c1 | inactive | Not Active |  | Not Active | 0.86 |  |  |  |  | 
21 | O=C(O)/C=C/c1ccc2oc(C(=O)Nc3ccccc3)cc(=O)c2c1 | inactive | Not Active |  | Not Active | 5.99 |  |  | 9 |  | 
22 | Cc1ccc(NC(=O)c2coc3ccc(/C=C/C(=O)O)cc3c2=O)cc1C | inactive | Not Active | inactive |  |  | 4.52 |  |  |  | 
23 | Cc1ccc(NC(=O)c2coc3ccc(/C=C/C(=O)O)cc3c2=O)cc1 | inactive | Not Active | inactive | Not Active |  |  |  | 16 |  | 
24 | CCN(CC)CCOC(=O)/C=C/c1ccc2oc(C(=O)Nc3cccc(Cl)c3)cc(=O)c2c1 | inactive | Not Active |  | Not Active | 4.45 |  |  |  |  | 
25 | CCN(CC)CCOC(=O)/C=C/c1ccc2occ(C(=O)Nc3ccc(OC)cc3)c(=O)c2c1 | inactive | Not Active |  | Not Active | 5.43 |  |  |  |  | 
26 | CN(C)CCOC(=O)/C=C/c1ccc2oc(C(=O)Nc3ccccc3)cc(=O)c2c1 |  | Not Active |  |  | 0.74 | 2.28 |  | 36 | 1.57 | > 10
27 | O=C(O)/C=C/c1ccc2oc(C(=O)Nc3ccc(Cl)cc3)cc(=O)c2c1 | inactive | Not Active | inactive | Not Active |  |  |  |  |  | 
28 | CCN(CC)CCOC(=O)/C=C/c1ccc2occ(C(=O)Nc3cccc(Cl)c3)c(=O)c2c1 | inactive | Not Active |  |  | 8.54 | 1.25 |  |  |  | 
29 | CCN(CC)CCOC(=O)/C=C/c1ccc2oc(C(=O)Nc3ccc(OC)cc3)cc(=O)c2c1 | inactive | Not Active |  | Not Active | 1.14 |  |  |  |  | 
30 | O=C(O)/C=C/c1ccc2occ(C(=O)Nc3ccc(Cl)cc3)c(=O)c2c1 | inactive | Not Active | inactive | Not Active |  |  |  |  |  | 
31 | CCN(CC)CCOC(=O)/C=C/c1ccc2occ(C(=O)Nc3ccc(C)c(C)c3)c(=O)c2c1 | inactive | Not Active |  | Not Active |  |  |  |  |  | 
32 | COc1ccc(NC(=O)c2cc(=O)c3cc(/C=C/C(=O)O)ccc3o2)cc1 | inactive | Not Active |  | Not Active | 7.43 |  |  |  |  | 
33 | Cc1ccc(NC(=O)c2coc3ccc(/C=C/C(=O)OCCN(C)C)cc3c2=O)cc1 |  | Not Active |  |  | 0.97 | 2.37 |  | 97 | 7.42 | > 10
